Experimental data: patent US10246411B2, “(Z)-3,4,5-trimethoxystyrylbenzenesulfonamides as potential anticancer agents” (COUNCIL OF SCIENTIFIC & INDUSTRIAL RESEARCH, priority 2014, dated 2019)
Read-outs that look alike come from different tables or passages of the source.

What was measured:
[1] = tested on: HL-60(TB); test: In vitro cytotoxicity (NCI protocol, SRB), HL-60(TB); type: cell-based; details: Homo sapiens, Leukemia HL-60(TB), 48 h exposure
[2] = tested on: human tumor cell lines; test: In vitro cytotoxicity (NCI protocol, SRB), whole panel / mean graph midpoints; type: cell-based; details: for GI50: Homo sapiens; for Log10GI50 mean graph mid point (MG_MID) / Log10LC50 mean graph mid point (MG_MID) / Log10TGI mean graph mid point (MG_MID): mean over human tumor cell lines
Text: The mean graph midpoint values of Log10 TGI and Log10 LC50 as well as Log10 GI50 for compounds 17a, 17c, 13a, 13c and 12a is listed in Table-2. […] The mean graph midpoints of Log10 TGI and Log10 LC50 have shown similar pattern to the log10 GI50 mean graph mid points.

[3] = tested on: HT29; test: In vitro cytotoxicity (NCI protocol, SRB), HT29; details: Homo sapiens, HT-29, 48 h
[4] = tested on: U251; test: In vitro cytotoxicity (NCI protocol, SRB), U251; details: Homo sapiens, U-251, 48 h
[5] = tested on: K-562; test: In vitro cytotoxicity (NCI protocol, SRB), K-562; details: Homo sapiens, K562, 48 h
[6] = tested on: A498; test: In vitro cytotoxicity (NCI protocol, SRB), A498; details: Homo sapiens, A498, 48 h
[7] = tested on: ACHN; test: In vitro cytotoxicity (NCI protocol, SRB), ACHN; details: Homo sapiens, 48 h
[8] = tested on: PC-3; test: In vitro cytotoxicity (NCI protocol, SRB), PC-3; details: Homo sapiens, PC-3, 48 h
[9] = tested on: 786-0; test: In vitro cytotoxicity (NCI protocol, SRB), 786-0; details: Homo sapiens, 786-0, 48 h
[10] = tested on: SN12C; test: In vitro cytotoxicity (NCI protocol, SRB), SN12C; details: Homo sapiens, 48 h
[11] = tested on: MOLT-4; test: In vitro cytotoxicity (NCI protocol, SRB), MOLT-4; details: Homo sapiens, MOLT-4, 48 h
[12] = tested on: UO-31; test: In vitro cytotoxicity (NCI protocol, SRB), UO-31; details: Homo sapiens, UO-31, 48 h
[13] = tested on: T-47D; test: In vitro cytotoxicity (NCI protocol, SRB), T-47D; details: Homo sapiens, T47D, 48 h
[14] = tested on: DU-145; test: In vitro cytotoxicity (NCI protocol, SRB), DU-145; details: Homo sapiens, DU-145, 48 h
[15] = tested on: BT-549; test: In vitro cytotoxicity (NCI protocol, SRB), BT-549; details: Homo sapiens, BT-549, 48 h
[16] = tested on: NCI-H23; test: In vitro cytotoxicity (NCI protocol, SRB), NCI-H23; details: Homo sapiens, NCI-H23, 48 h
[17] = tested on: HCT-116; test: In vitro cytotoxicity (NCI protocol, SRB), HCT-116; details: Homo sapiens, HCT-116, 48 h
[18] = tested on: CCRF-CEM; test: In vitro cytotoxicity (NCI protocol, SRB), CCRF-CEM; details: Homo sapiens, 48 h
[19] = tested on: SNB -75; test: In vitro cytotoxicity (NCI protocol, SRB), SNB -75; details: Homo sapiens, SNB-75, 48 h
[20] = tested on: OVCAR-4; test: In vitro cytotoxicity (NCI protocol, SRB), OVCAR-4; details: Homo sapiens, OVCAR-4, 48 h
[21] = tested on: OVCAR-5; test: In vitro cytotoxicity (NCI protocol, SRB), OVCAR-5; details: Homo sapiens, OVCAR-5, 48 h
[22] = tested on: NCI-H522; test: In vitro cytotoxicity (NCI protocol, SRB), NCI-H522; details: Homo sapiens, NCI-H522, 48 h
[23] = tested on: COLO-205; test: In vitro cytotoxicity (NCI protocol, SRB), COLO-205; details: Homo sapiens, COLO 205, 48 h
[24] = tested on: LOX IMVI; test: In vitro cytotoxicity (NCI protocol, SRB), LOX IMVI; details: Homo sapiens, 48 h
[25] = tested on: A549/ATCC; test: In vitro cytotoxicity (NCI protocol, SRB), A549/ATCC; details: Homo sapiens, A549, 48 h
[26] = tested on: SK-MEL-28; test: In vitro cytotoxicity (NCI protocol, SRB), SK-MEL-28; details: Homo sapiens, SK-MEL-28, 48 h
[27] = tested on: NCI/ADR-RES; test: In vitro cytotoxicity (NCI protocol, SRB), NCI/ADR-RES; details: Homo sapiens, 48 h
[28] = tested on: MDA-MB-231/ATCC; test: In vitro cytotoxicity (NCI protocol, SRB), MDA-MB-231/ATCC; details: Homo sapiens, MDA-MB-231, 48 h
[29] = against all the cancer cell lines, read-out: GI50 values range
[30] = against fifty eight cell lines in nine cancer cell panels, read-out: GI50 values
[31] = against almost 50 above cancer cell lines

Compound: COc1ccc(S(=O)(=O)Nc2cc(/C=C\c3cc(OC)c(OC)c(OC)c3)cc(OC)c2OC)cc1 [13a, (Z)—N-(2,3-dimethoxy-5-(3,4,5-trimethoxystyryl)phenyl)-4-methoxybenzenesulfonamide]
- GI50 [1]: 23.4 nM
- GI50 [2, 29]: 18 to 50 nM
- GI50 ([2]; against almost all tumor cell lines, read-out: GI50 values): < 50 nM
- GI50 [2, 30]: 20 to 50 nM
- cytotoxicity [2, 31]: significant cytotoxicity
- Log10GI50 mean graph mid point (MG_MID) [2]: −7.2
- Log10LC50 mean graph mid point (MG_MID) [2]: −4.07
- Log10TGI mean graph mid point (MG_MID) [2]: −4.55
- GI50 [3]: 33.1 nM
- GI50 [4]: 35.7 nM
- GI50 [5]: 27.2 nM
- GI50 [6]: 21.7 nM
- GI50 [7]: 57 nM
- GI50 [8]: 38 nM
- GI50 [9]: 57.9 nM
- GI50 [10]: 69.8 nM
- GI50 [11]: 49.5 nM
- GI50 [12]: 63.6 nM
- GI50 [13]: 5210 nM
- GI50 [14]: 41.6 nM
- GI50 [15]: 42.5 nM
- GI50 [16]: 59.3 nM
- GI50 [17]: 35 nM
- GI50 [18]: 32.9 nM
- GI50 [19]: 26.5 nM
- GI50 [20]: 84.2 nM
- GI50 [21]: 49.9 nM
- GI50 [22]: 19.7 nM
- GI50 [23]: 21.4 nM
- GI50 [24]: 50 nM
- GI50 [25]: 47.4 nM
- GI50 [26]: 76.5 nM
- GI50 [27]: 35.3 nM
- GI50 [28]: 47.9 nM

Compound: COc1cc(/C=C\c2cc(OC)c(OC)c(OC)c2)cc(NS(=O)(=O)c2ccc(Cl)cc2)c1OC [13c, (Z)-4-chloro-N-(2,3-dimethoxy-5-(3,4,5-trimethoxystyryl)phenyl)benzenesulfonamide]
- GI50 [1]: 249 nM
- GI50 [2, 30]: 20 to 50 nM
- cytotoxicity [2, 31]: significant cytotoxicity
- Log10GI50 mean graph mid point (MG_MID) [2]: −6.27
- Log10LC50 mean graph mid point (MG_MID) [2]: −4.03
- Log10TGI mean graph mid point (MG_MID) [2]: −4.42
- GI50 [3]: 348 nM
- GI50 [4]: 461 nM
- GI50 [5]: 306 nM
- GI50 [6]: 179 nM
- GI50 [7]: 586 nM
- GI50 [8]: 395 nM
- GI50 [9]: 666 nM
- GI50 [10]: 750 nM
- GI50 [11]: 672 nM
- GI50 [12]: 696 nM
- GI50 [13]: 381 nM
- GI50 [14]: 507 nM
- GI50 [15]: 966 nM
- GI50 [16]: 710 nM
- GI50 [17]: 469 nM
- GI50 [18]: 388 nM
- GI50 [19]: 227 nM
- GI50 [20]: 1530 nM
- GI50 [21]: 726 nM
- GI50 [22]: 209 nM
- GI50 [23]: 252 nM
- GI50 [24]: 566 nM
- GI50 [25]: 716 nM
- GI50 [26]: 1140 nM
- GI50 [27]: 364 nM
- GI50 [28]: 1160 nM

Compound: COc1ccc(/C=C\c2cc(OC)c(OC)c(OC)c2)c(NS(=O)(=O)c2ccc(Cl)cc2)c1O [17c, (Z)-4-chloro-N-(2-hydroxy-3-methoxy-6-(3,4,5-trimethoxystyryl)phenyl)benzenesulfonamide]
- GI50 [1]: 33.1 nM
- cytotoxicity [2]: significant cytotoxicity
- GI50 [2, 29]: 18 to 50 nM
- GI50 [2, 30]: 20 to 50 nM
- Log10GI50 mean graph mid point (MG_MID) [2]: −6.71
- Log10LC50 mean graph mid point (MG_MID) [2]: −4.07
- Log10TGI mean graph mid point (MG_MID) [2]: −4.66
- GI50 [3]: 2760 nM
- GI50 [4]: 287 nM
- GI50 [5]: 32.3 nM
- GI50 [6]: 22.9 nM
- GI50 [7]: 83.8 nM
- GI50 [8]: 153 nM
- GI50 [9]: 572 nM
- GI50 [10]: 708 nM
- GI50 [11]: 31.5 nM
- GI50 [12]: 73.9 nM
- GI50 [14]: 200 nM
- GI50 [15]: 353 nM
- GI50 [16]: 288 nM
- GI50 [17]: 114 nM
- GI50 [18]: 159 nM
- GI50 [19]: 33.1 nM
- GI50 [20]: 97.2 nM
- GI50 [21]: 2860 nM
- GI50 [22]: 84.8 nM
- GI50 [23]: 1740 nM
- GI50 [24]: 153 nM
- GI50 [25]: 270 nM
- GI50 [26]: 84.1 nM
- GI50 [27]: 263 nM
- GI50 [28]: 206 nM
